Assay results reported in PubChem BioAssay AID449750 (Broad Institute, 2010).
Active and inactive are the calls of the source. The rule behind the calls is not given here.

Test: non-covalent RecA intein splicing inhibitors, dose response, biochemical, cell-free, fluorescence, secondary screen (AID 449750)

Structure (SMILES)	AC50
COc1ccccc1C1C(C#N)=C(N)Oc2c1c(-c1ccccc1)nn2-c1ccccc1 (centres undefined)	11.9 µM
COc1cc(/C=C/c2sc3ccccc3[n+]2CCCS(=O)(=O)[O-])ccc1O	> 38 µM (inactive)
Cc1cc(-c2[nH]nc3c2C(c2ccc(Cl)cc2)C(C#N)=C(N)O3)c(C)s1 (centres undefined)	15.2 µM
COc1ccc(-c2csc(CCN3N=C(C)CC3=O)n2)cc1	10.1 µM
COc1cc(/C=C2\C(=O)N(c3ccc(S(N)(=O)=O)cc3)N=C2C)ccc1OC(=O)c1ccco1	21 µM
CN(C)/C=C/C(=O)c1ccc2noc(-c3ccc(F)cc3)c2c1	> 38 µM (inactive)
COc1cc(C(c2c(C)[nH][nH]c2=O)c2c(C)[nH][nH]c2=O)cc(Br)c1OC	13.9 µM
CN1CCN(C2=C(Cl)C(=O)C(c3cnc(N4CCCCC4)s3)=C(Cl)C2=O)CC1	3.1 µM
CCCCCCn1c(N2CCC(C(N)=O)CC2)nc2c1c(=O)n(C)c(=O)n2C	> 38 µM (inactive)
CN1C=C/C(=C\c2cc[n+](C)c3ccccc23)c2ccccc21	29.3 µM
Oc1c(C=NCc2ccc(F)cc2)[nH]c2ccc(Br)c(Cl)c12	30.8 µM
CN(C)c1ccc(NC(=O)c2ccncc2)c2ccccc12	> 38 µM (inactive)
Cc1ccc(N(NC(=O)C(O)(c2ccccc2)c2ccccc2)C(=O)CCl)cc1	1.57 µM
CN1CCN(C(c2ccc(Br)cc2)c2cc(Cl)c3cccnc3c2O)CC1 (centres undefined)	5.33 µM
CC1=Nc2cccc3cccc(c23)N1C	> 38 µM (inactive)
Nc1ccc2c(c1)C(=O)C(=O)c1ccccc1-2	17.6 µM
O=S(=O)(Nc1ccc(-n2cnnn2)cc1)c1ccc(F)c(F)c1F	> 38 µM (inactive)
Cc1ccc(-c2cc(-c3ccc(C)cc3)[n+](-c3ccc(C(=O)[O-])cc3)c(-c3ccc(C)cc3)c2)cc1	37.5 µM
O=C(Nc1ccccc1)c1nnsc1S(=O)(=O)c1ccc(Cl)cc1	> 38 µM (inactive)
Cc1ccc(NC2=C/C(=N\S(=O)(=O)c3cccs3)c3ccccc3C2=O)c(C)c1	0.304 µM
N#Cc1c(N2CCCC2)nc(N)c2c(N)nc(N3CCCC3)cc12	0.774 µM
O=C(NC1CCCC1)C(c1ccc(F)cc1)N(Cc1ccccc1Cl)C(=O)CCl (centres undefined)	0.802 µM
CCOc1ccc(C(c2c(C)[nH][nH]c2=O)c2c(C)[nH][nH]c2=O)cc1OCC	9.1 µM
CCCCCC(=O)Cc1cc(O)cc2c1C(=O)Oc1cc(O)c(C(=O)O)c(CCCCC)c1O2	6.09 µM
CCCc1[nH]nc2c1C(c1cccc(OC)c1)C(C#N)=C(N)O2 (centres undefined)	> 38 µM (inactive)
Cc1nnc(NC(=O)c2nc(S(=O)(=O)Cc3ccccc3C)ncc2Cl)s1	> 38 µM (inactive)

Structure (SMILES)	AC50
CCOC(=O)C1CCN(c2nc(N)c3c(N)nc(SCC(=O)O)cc3c2C#N)CC1	> 12 µM (inactive)
CCOC(=O)CN1C(=O)N[C@@H](c2cccc(C(F)(F)F)c2)C(C(C)=O)=C1C	> 38 µM (inactive)
CCOc1ccc(CN2CCN(CC3=Cc4cccc(OC)c4OC3)CC2CCO)cc1 (centres undefined)	> 38 µM (inactive)
COC(=O)CCSc1cc(NCCOC(C)=O)c([N+](=O)[O-])c2nonc12	> 38 µM (inactive)
COc1ccc(-c2nnc(SC(=O)N3c4ccccc4Sc4ccccc43)o2)cc1	4.86 µM
COc1ccccc1-c1c(C)oc2cc(OC(=O)c3ccco3)ccc2c1=O	> 38 µM (inactive)
CCCc1[nH]nc2c1C(c1ccc(OCCN3CCOCC3)c(OCC)c1)C(C#N)=C(N)O2 (centres undefined)	> 38 µM (inactive)
COc1ccc(C(N)c2nccc3cc(OC)c(OC)cc23)cc1OC (centres undefined)	> 38 µM (inactive)
O=c1[nH]cc(N=Cc2cc([N+](=O)[O-])ccc2O)c(=O)[nH]1	> 38 µM (inactive)
COc1cc(C2(c3ccc(O)c(OC)c3)C(=O)Nc3c(C)cc(Br)cc32)ccc1O	9.32 µM
Cc1[nH]nc2c1C(c1cn[nH]c1-c1ccc(F)cc1)C(C#N)=C(N)O2 (centres undefined)	> 38 µM (inactive)
COc1ccc(CC(=O)O/N=C(\N)Cc2cccc3ccccc23)cc1OC	> 38 µM (inactive)
CC(=O)N(C)C1=C(N2CCOCC2)C(=O)c2ccccc2C1=O	15.7 µM
O=C(Oc1ccc(N2C(=O)CCC2=O)cc1)c1ccco1	0.433 µM
COc1ccccc1-c1cc(C(F)(F)F)nc(S(=O)(=O)CCCC(=O)N2CCOCC2)n1	13.6 µM
CCN1CCN(C(c2cccnc2)c2cc(Cl)c3cccnc3c2O)CC1 (centres undefined)	16 µM
COc1ccc(C(=O)NC(=S)NNC(=O)CCc2ccccc2)cc1	> 38 µM (inactive)
O=C1CCCC(O)=C1C(C#Cc1ccccc1)C1=C(O)CCCC1=O	14.7 µM
COc1ccc(C2=NN(C(=O)/C=C/c3ccccc3)C(c3ccccc3)C2)c(OC(C)=O)c1 (centres undefined)	2.24 µM
Cc1ccc(NC2=C(NC(=O)c3ccccc3)C(=O)c3ccccc3C2=O)cc1Cl	7.45 µM
Cc1[nH]n(-c2ccccc2)c(=O)c1C(c1ccc(C(=O)O)cc1)c1c(C)[nH]n(-c2ccccc2)c1=O	2.11 µM
Cc1[nH][nH]c(=O)c1C(c1ccc(O)c(Br)c1)c1c(C)[nH][nH]c1=O	13.5 µM
CCc1cccc(CC)c1NC(=O)/C(C#N)=C/c1ccccc1C(F)(F)F	11.6 µM
COc1cc(C=C2C(=O)c3ccccc3C2=O)ccc1O	> 38 µM (inactive)
O=C1C(Cl)=C(N2CCOCC2)C(=O)N1c1ccccc1F	> 38 µM (inactive)
COc1cc(Cc2nccc3cc(OC)c(OC)cc23)c(S(=O)(=O)O)cc1OC	> 38 µM (inactive)

Structure (SMILES)	AC50
O=S(=O)(CCSc1nc2ccccc2s1)c1nc2ccccc2s1	27.3 µM
CCOC(=O)N1CCC(c2cc(=O)n(-c3ccccc3)[nH]2)CC1	6.18 µM
COc1ccc(-c2csc(Nc3ccc(O)cc3)n2)cc1	> 38 µM (inactive)
O=C(NC1CCCCC1)C(c1cccnc1)N(C(=O)CCl)c1ccc(F)cc1 (centres undefined)	5.58 µM
CCn1c(O)c(N=Nc2cccc(S(=O)(=O)N3CCOCC3)c2)c(=O)n(CC)c1=S	> 38 µM (inactive)
COC(=O)Cc1[nH]nc2c1C1(CCSCC1)C(C#N)=C(N)O2	> 12 µM (inactive)
COc1ccc(C(=O)/C=C/Sc2nc3ccccc3o2)cc1	38.6 µM
CCCCn1c(NC(=O)c2ccc(Br)o2)c(S(=O)(=O)c2ccccc2)c2nc3ccccc3nc21	> 38 µM (inactive)
O=C(CCl)c1ccc2c(c1)CCN2C(=O)C1CCCCC1	> 38 µM (inactive)
Cc1nn(-c2ccccc2)c(Cl)c1CN(C(=O)CCl)c1cccc2ccccc12	0.933 µM
Cc1ccc(S(=O)(=O)/N=C2\C=C(Nc3cccc(C(=O)O)c3)C(=O)c3ccccc32)cc1	0.412 µM
O=C(CCl)Nc1ccc(N2CCCCCC2)cc1	6.59 µM
O=C1C(Cl)=C(N2CCOCC2)C(=O)N1c1cccc(C(F)(F)F)c1	> 38 µM (inactive)
CC(=O)c1c(Cl)nc2cccc3c2c1-c1ccccc1C3=O	> 38 µM (inactive)
COc1cccc(C(c2c(C)[nH]n(-c3ccccc3)c2=O)c2c(C)[nH]n(-c3ccccc3)c2=O)c1OC	2.19 µM
COc1ccc(C(C(=O)NC2CCCCC2)N(C(=O)CCl)c2cccc(Cl)c2)cc1 (centres undefined)	0.577 µM
CC(C)(C)c1cc[n+](C2=C([O-])c3ccccc3C(=O)/C2=N\S(=O)(=O)c2ccccc2)cc1	9.74 µM
COc1ccc(C2CC(c3cccs3)=NN2C(=O)CCl)cc1OC (centres undefined)	3.39 µM
COc1ccc(C(=O)c2c(C(F)(F)F)oc3c2C(=O)c2ccccc2C3=O)cc1OC	> 38 µM (inactive)
CC1=NN(c2cccc(Cl)c2)C(=O)C1	34.3 µM
O=C(CCl)Nc1c2c(nn1-c1ccccc1)CSC2	29.2 µM
COc1ccc2[nH]c3c(Cl)ncnc3c2c1	> 38 µM (inactive)
CC1(C)CC2(C)OC(=N)C1(C#N)C2(C#N)C#N (centres undefined)	> 38 µM (inactive)
CC(NC(=O)/C(C#N)=C/c1ccc([N+](=O)[O-])o1)c1ccccc1 (centres undefined)	> 38 µM (inactive)
O=C(NC1=C(Nc2ccc(F)cc2)C(=O)c2ccccc2C1=O)c1ccc(Cl)cc1	13.6 µM
CNC(=O)c1nnsc1S(=O)c1ccc(Cl)cc1 (centres undefined)	> 38 µM (inactive)

Structure (SMILES)	AC50
Cc1nn(CCc2nn[nH]n2)c2nc(-c3ccc(C4CCCCC4)cc3)cc(C(F)(F)F)c12	24.6 µM
Cc1ccc2nc(N/N=C\c3ccc([N+](=O)[O-])o3)nc(-c3ccccc3)c2c1	> 38 µM (inactive)
O=C(N/N=C/c1c(O)n(C2CCCCC2)c(=S)[nH]c1=O)c1ccccc1O	4.36 µM
COc1ccc2nc(SCC(=O)NN)cc(C)c2c1	> 38 µM (inactive)
O=C(NC1CCCC1)C(c1ccc(F)cc1)N(Cc1ccc(Cl)cc1)C(=O)CCl (centres undefined)	5.55 µM
O=C(NNC(=O)c1ccc([N+](=O)[O-])o1)c1ccccc1	33.6 µM
Cc1[nH]nc2c1C(c1cccs1)C(C#N)=C(N)O2 (centres undefined)	> 38 µM (inactive)
CCOC(=O)c1nnn(-c2nonc2-n2cccc2)c1CCl	26.6 µM
CC(=O)N(C1CC(C)C(C#N)(C#N)C1(C#N)C#N)N(C)C (centres undefined)	> 38 µM (inactive)
O=c1[nH]c(Nc2ccccc2)cc2ccccc12	1.68 µM
CCCCCCCCCCn1c2c(c(=N)c3c1CCC3)CCC2	> 38 µM (inactive)
CS(=O)(=O)c1nc(-c2ccccc2)cc(C(F)(F)F)n1	> 38 µM (inactive)
Cc1ccc(-n2nc(C)c3c2OC(N)=C(C#N)C3c2ccc(C)o2)cc1 (centres undefined)	8.87 µM
CCOc1cc(/C=C2\C(=N)N3N=C(N4CCCCC4)SC3=NC2=O)ccc1OC(=O)c1ccco1	> 38 µM (inactive)
CCOC(=O)Cc1[nH]nc2c1C(c1cccc(OC)c1OC)C(C#N)=C(N)O2 (centres undefined)	11.5 µM
CC1=NNC(=O)C1C(c1ccc(F)cc1)C(C#N)C#N (centres undefined)	> 38 µM (inactive)
COc1cc(C2C(C#N)=C(N)Oc3n[nH]c(-c4cccnc4)c32)cc(Br)c1O (centres undefined)	4.01 µM
O=C(Cc1cc(=O)[nH][nH]1)N/N=C/c1cccc2ccccc12	17.4 µM
O=C(NC(=C(Cl)Cl)S(=O)(=O)c1ccc(Cl)cc1)c1ccccc1	4.78 µM
CN1CCN(Cc2cc(=O)oc3ccc(Cl)cc23)CC1	> 38 µM (inactive)
O=C(O)COc1ccccc1C(Nc1cccnc1)c1cc(Cl)c2cccnc2c1O (centres undefined)	6.01 µM
COc1cc(NCCCCCCCN)c2ncccc2c1	13.6 µM
O=C(OCn1ncc(Cl)c(Cl)c1=O)c1ccc(C(F)(F)F)cc1	3.99 µM
CCCc1[nH][nH]c(=O)c1C(c1ccc(Br)cc1)C(C#N)C#N (centres undefined)	32.2 µM
O=[N+]([O-])c1c(Nc2ccccn2)cc(Cl)c2nonc12	1.76 µM
Cc1ccccc1NC1=C/C(=N\S(=O)(=O)c2ccc(C(=O)O)cc2)c2ccccc2C1=O	14.7 µM
